According to publication PMC8238520, “Co-ordinated control of the Aurora B abscission checkpoint by PKCε complex assembly, midbody recruitment and retention” (Biochemical Journal, 2021):

Assays:
Type in all cases: cell-based
[1] = test system: GFP-PKCε-C183A in HEK293T cells; test: Midbody recruitment of GFP-PKCε-C183A (C1A mutant), immunofluorescence; conditions: twenty cells with midbodies per condition across three experiments
Protocol: (§1) Cells were grown on 13 mm glass coverslips and simultaneously fixed and permeabilized with PHEM-TX buffer (60 mM PIPES (pH 6.8), 25 mM HEPES (pH7.4), 10 mM EGTA (pH 8), 4 mM MgSO4, 4% paraformaldehyde and 0.1% Triton X-100) for 20 min. Cells were then incubated in blocking buffer (3% BSA in PBS) and probed using the following primary antibodies: rabbit Aurora B pS227 (in house, 1 : 100), mouse α-tubulin (in house, 1 : 1000). Primary antibodies were detected using Alexa Fluor-conjugated secondary antibodies (Life Technologies) and were all used diluted in blocking buffer: donkey anti-rabbit Alexa Fluor 647 and goat anti-mouse Alexa Fluor 555. […]
(§2) Figure 2. […] (B) Quantitation of dividing cells with GFP-PKCε and GFP-PKCε-D532N accumulation at the midbody. […] (D) Quantitation of dividing cells with GFP-PKCε, GFP-PKCε-S346A-S368A, GFP-PKCε-D532N or GFP-PKCε-D532N-S346A-S368A accumulation at the midbody. […] (F) Quantitation of dividing cells with GFP-PKCε-D532N, GFP-PKCε-D532N-C183A, GFP-PKCε-D532N-C259A or GFP-PKCε-D532N-ΔC2 accumulation at the midbody. […] (G) Quantitation of multinucleate cells upon treatment with non-targeting siRNA (control) or PKCε siRNA, with expression of siRNA-resistant mouse GFP-PKCε, GFP-PKCε-D532N, GFP-PKCε-C183A, GFP-PKCε-C259A or GFP-PKCε-ΔC2. […] Two-hundred cells were counted per condition per experiment. […]

[2] = test system: GFP-PKCε-ΔC2 in HEK293T cells; test: Midbody recruitment of GFP-PKCε-ΔC2, immunofluorescence
Protocol: as §1, with “555. All coverslips were mounted using ProLong Gold Diamond with DAPI (Invitrogen). All the static images were acquired using an inverted laser scanning confocal microscope (Carl Zeiss LSM 780) equipped with a 40× Plan-APOCHROMAT DIC oil-immersion objective. Image analysis was carried out using the ZEN analysis software. The variation in expression precluded midbody/cytoplasmic ratio determination as a valid approach to scoring localisation.” for “555.”
(§3) I = I0 –I 1e-t/T1 –I 2e-t/T2 (see Methods), for GFP-PKC e M486A expressing HEK293T cells pretreated with NaPP1. Cells were bleached atthe plasma membrane (PM) or midbody(MB)and fluorescence recovery was monitored. […]

[3] = test system: GFP-PKCε (WT) in HEK293T cells; test: Midbody recruitment of GFP-PKCε (WT), immunofluorescence; conditions: cells undergoing cytokinesis, twenty cells with midbodies per condition across three experiments
Protocol: as §1, §2

[4] = test system: GFP-PKCε-L223A-K224A-E227A in HEK293T cells; test: Midbody recruitment of GFP-PKCε-L223A-K224A-E227A (LKE > 3A), immunofluorescence; conditions: twenty cells with midbodies per condition across three experiments
Protocol: as §1, with “555. All coverslips were mounted using ProLong Gold Diamond with DAPI (Invitrogen). All the static images were acquired using an inverted laser scanning confocal microscope (Carl Zeiss LSM 780) equipped with a 40× Plan-APOCHROMAT DIC oil-immersion objective. Image analysis was carried out using the ZEN analysis software. The variation in expression precluded midbody/cytoplasmic ratio determination as a valid approach to scoring localisation.” for “555.”
Figure 3. […] (C) Quantitation of dividing cells with GFP-PKCε, GFP-PKCε-D532N, GFP-PKCε-D532N-L223A-K224A-E227A, GFP-PKCε-D532N-T228A or GFP-PKCε-D532N-S234A accumulation at the midbody. […]

[5] = test system: GFP-PKCε-C259A in HEK293T cells; test: Midbody recruitment of GFP-PKCε-C259A (C1B mutant), immunofluorescence; conditions: twenty cells with midbodies per condition across three experiments
Protocol: as §1, §2

[6] = test system: GFP-PKCε M486A in HEK293T cells; test: Fluorescence recovery after photobleaching (FRAP); conditions: NaPP1 (4 μM) for 10 min; 37°C
Protocol: Live-cell fluorescence recovery after photobleaching (FRAP) experiments were performed using an inverted laser scanning confocal microscope (LSM 510, Carl Zeiss MicroImaging GmbH, Jena, Germany), with fully open pinhole, using a Plan-Apochromat oil-immersion objective (×63, NA 1.4). The microscope was encased inside an environmental polymethylmethacrylate case maintained at a constant temperature of 37°C, while the dishes containing the cells were maintained under a constant 5% CO2 flow. GFP-PKCε M486A cells were incubated with NaPP1 (4 μM) for 10 min. Each FRAP experiment comprised a sequence of 300 frames (128 × 128, pixel dwell time of 6.40 μs, pixel size 0.37 μm) including 10 pre-bleached frames. […] Recovery was monitored by capturing a further 290 scans after the photobleach event. Quantification was performed using the FRAP module included in the LSM software (Carl Zeiss) plotting the graphs to a best fit double exponential model I = I0 − I1e^−t/T^1 − I2e^−t/T^2 where I0 is the intensity before bleach, I1 and I2 are the mobile fractions and T1 and T2 the time constants. […]
as §3

## CCCCCCCCCCCCCC(=O)O[C@@H]1[C@@H](C)[C@@]2(O)[C@@H](C=C(CO)C[C@]3(O)C(=O)C(C)=C[C@@H]23)[C@@H]2C(C)(C)[C@]12OC(C)=O [PMA, phorbol myristate acetate]
[1]; 1 µM PMA, 20 min
  midbody accumulation of C1A mutant (C183A) on PMA: still promoted midbody accumulation
[2]; PMA for 20 minutes, 20 cells per condition across 3 experiments
  midbody recruitment of PKCεΔC2 on PMA: recruited
[3]; 1 µM PMA, 20 min
  midbody recruitment of WT PKCε on PMA: recruited to the midbody region
[4]; 1 µM PMA, 20 min
  midbody recruitment of LKE > 3A mutant on PMA: recruited to the midbody
[5]; 1 µM PMA, 20 min
  midbody recruitment of C1B mutant (C259A) on PMA: not recruited

## CC(C)(C)n1nc(-c2cccc3ccccc23)c2c(N)ncnc21 [NaPP1]
[6]
  fast component of FRAP recovery at the midbody compared with the plasma membrane recruited protein: considerably slower

## CCCCCCCCCC(=O)OC[C@H](CO)OC(=O)CCCCCCCCC [DiC10, sn-1,2-didecanoylglycerol]
[1]; 10 µM diC10, 3 min
  cells displaying recruitment of C1A mutant to midbody on diC10: 0%
[2]; DiC10, data not shown
  midbody recruitment of PKCεΔC2 on diC10: recruited
[3]; 10 µM diC10, 3 min
  midbody recruitment of WT PKCε on diC10: recruited to the midbody region
[4]; 10 µM diC10, 3 min
  midbody recruitment of LKE > 3A mutant on diC10: recruited to the midbody
[5]; 10 µM diC10, 3 min
  cells displaying recruitment of C1B mutant to midbody on diC10: 0%
